± gives the expanded uncertainty stated by the source.
Assay: xn = mol fraction of the nth substance listed
Conditions: 101 kPa, Liquid; for speed of sound: Sing-around technique in a fixed-path interferometer

CCCCCCCC [octane] + CCCCO
Conditions | mass density, 298.15 K [kg/m3] | mass density, 303.15 K [kg/m3] | mass density, 308.15 K [kg/m3] | speed of sound, 298.15 K [m/s] | speed of sound, 303.15 K [m/s] | speed of sound, 308.15 K [m/s] | viscosity, 298.15 K [mPa·s]
x2 = 0 | 698.58 ± 0.99 | 694.497 ± 1 | 690.416 ± 1 | 1172.7 ± 1.2 | 1152.1 ± 1.2 | 1131.7 ± 1.2 | 0.518 ± 0.009
x2 = 0.0563 | 701.448 ± 0.98 | 697.299 ± 0.99 | 693.192 ± 1 | 1169.8 ± 1.2 | 1149.2 ± 1.2 | 1128.6 ± 1.2 | 0.525 ± 0.009
x2 = 0.1091 | 704.623 ± 0.98 | 700.473 ± 0.99 | 696.337 ± 0.99 | 1169.4 ± 1.2 | 1148.8 ± 1.2 | 1128.2 ± 1.2 | 0.54 ± 0.009
x2 = 0.1579 | 707.716 ± 0.97 | 703.646 ± 0.98 | 699.455 ± 0.99 | 1169.4 ± 1.2 | 1149 ± 1.2 | 1128.1 ± 1.2 | 0.55 ± 0.01
x2 = 0.2245 | 712.309 ± 0.96 | 708.268 ± 0.97 | 704.085 ± 0.98 | 1170.1 ± 1.2 | 1149.5 ± 1.2 | 1129.2 ± 1.2 | 0.585 ± 0.01
x2 = 0.3117 | 718.911 ± 0.95 | 714.997 ± 0.96 | 710.775 ± 0.96 | 1172.1 ± 1.2 | 1151.8 ± 1.2 | 1131.4 ± 1.2 | 0.636 ± 0.01
x2 = 0.4013 | 726.41 ± 0.93 | 722.577 ± 0.94 | 718.357 ± 0.95 | 1175.4 ± 1.2 | 1155.4 ± 1.2 | 1135.6 ± 1.2 | 0.708 ± 0.011
x2 = 0.4519 | 731.021 ± 0.92 | 727.253 ± 0.93 | 723.057 ± 0.94 | 1177.8 ± 1.2 | 1158.1 ± 1.2 | 1138 ± 1.2 | 0.762 ± 0.011
x2 = 0.5106 | 736.716 ± 0.91 | 733.019 ± 0.92 | 728.779 ± 0.93 | 1181.2 ± 1.2 | 1161.7 ± 1.2 | 1141.9 ± 1.2 | 0.837 ± 0.012
x2 = 0.6032 | 746.6 ± 0.89 | 742.919 ± 0.9 | 738.734 ± 0.91 | 1187.9 ± 1.2 | 1169.1 ± 1.2 | 1149.6 ± 1.2 | 0.992 ± 0.014
x2 = 0.7087 | 759.397 ± 0.86 | 755.747 ± 0.87 | 751.584 ± 0.88 | 1197.5 ± 1.2 | 1179.4 ± 1.2 | 1160.3 ± 1.2 | 1.232 ± 0.016
x2 = 0.8063 | 772.907 ± 0.84 | 769.349 ± 0.84 | 765.239 ± 0.85 | 1208.9 ± 1.2 | 1191.2 ± 1.2 | 1172.8 ± 1.2 | 1.539 ± 0.02
x2 = 0.8492 | 779.452 ± 0.82 | 775.973 ± 0.83 | 771.885 ± 0.84 | 1214.9 ± 1.2 | 1197.5 ± 1.2 | 1179.4 ± 1.2 | 1.711 ± 0.022
x2 = 0.909 | 789.203 ± 0.8 | 786.026 ± 0.81 | 781.895 ± 0.82 | 1223.7 ± 1.2 | 1207.2 ± 1.2 | 1189.3 ± 1.2 | 1.991 ± 0.025
x2 = 0.956 | 797.537 ± 0.79 | 794.495 ± 0.79 | 790.449 ± 0.8 | 1231.9 ± 1.2 | 1215.5 ± 1.2 | 1198.8 ± 1.2 | 2.262 ± 0.028

CCCCCCCCCC [decane] + CCCCO
Conditions | mass density, 298.15 K [kg/m3] | mass density, 303.15 K [kg/m3] | mass density, 308.15 K [kg/m3] | speed of sound, 298.15 K [m/s] | speed of sound, 303.15 K [m/s] | speed of sound, 308.15 K [m/s] | viscosity, 298.15 K [mPa·s]
x2 = 0 | 726.806 ± 0.93 | 723.042 ± 0.94 | 719.23 ± 0.95 | 1234.8 ± 1.2 | 1215.2 ± 1.2 | 1195.6 ± 1.2 | 0.852 ± 0.012
x2 = 0.0678 | 728.769 ± 0.93 | 724.903 ± 0.94 | 721.031 ± 0.94 | 1230.4 ± 1.2 | 1210.6 ± 1.2 | 1191.9 ± 1.2 | 0.845 ± 0.012
x2 = 0.1105 | 730.259 ± 0.92 | 726.415 ± 0.93 | 722.511 ± 0.94 | 1228.8 ± 1.2 | 1209.1 ± 1.2 | 1189.4 ± 1.2 | 0.855 ± 0.012
x2 = 0.1614 | 732.194 ± 0.92 | 728.365 ± 0.93 | 724.437 ± 0.94 | 1227.3 ± 1.2 | 1207.6 ± 1.2 | 1187.9 ± 1.2 | 0.868 ± 0.012
x2 = 0.2372 | 735.44 ± 0.91 | 731.639 ± 0.92 | 727.679 ± 0.93 | 1225.4 ± 1.2 | 1206.1 ± 1.2 | 1185.5 ± 1.2 | 0.895 ± 0.013
x2 = 0.3068 | 738.779 ± 0.91 | 734.994 ± 0.92 | 731.004 ± 0.92 | 1224.1 ± 1.2 | 1204.5 ± 1.2 | 1184.6 ± 1.2 | 0.931 ± 0.013
x2 = 0.4278 | 745.484 ± 0.89 | 741.679 ± 0.9 | 737.66 ± 0.91 | 1222.9 ± 1.2 | 1203.7 ± 1.2 | 1183.8 ± 1.2 | 1.019 ± 0.014
x2 = 0.5071 | 750.606 ± 0.88 | 746.798 ± 0.89 | 742.769 ± 0.9 | 1222.8 ± 1.2 | 1203.8 ± 1.2 | 1184.3 ± 1.2 | 1.102 ± 0.015
x2 = 0.5547 | 754.019 ± 0.88 | 750.194 ± 0.88 | 746.151 ± 0.89 | 1222.9 ± 1.2 | 1203.9 ± 1.2 | 1184.8 ± 1.2 | 1.164 ± 0.015
x2 = 0.6068 | 758.098 ± 0.87 | 754.237 ± 0.88 | 750.219 ± 0.88 | 1223.4 ± 1.2 | 1204.5 ± 1.2 | 1185.6 ± 1.2 | 1.244 ± 0.016
x2 = 0.7032 | 766.65 ± 0.85 | 762.82 ± 0.86 | 758.774 ± 0.87 | 1224.9 ± 1.2 | 1206.3 ± 1.2 | 1187.6 ± 1.2 | 1.432 ± 0.018
x2 = 0.8036 | 777.321 ± 0.83 | 773.625 ± 0.84 | 769.593 ± 0.84 | 1227.9 ± 1.2 | 1210.2 ± 1.2 | 1191.3 ± 1.2 | 1.685 ± 0.021
x2 = 0.8498 | 782.998 ± 0.82 | 779.309 ± 0.82 | 775.279 ± 0.83 | 1229.9 ± 1.2 | 1212.4 ± 1.2 | 1194 ± 1.2 | 1.843 ± 0.023
x2 = 0.9015 | 790.035 ± 0.8 | 786.406 ± 0.81 | 782.421 ± 0.82 | 1232.8 ± 1.2 | 1215.7 ± 1.2 | 1197.9 ± 1.2 | 2.047 ± 0.026
x2 = 0.95 | 797.464 ± 0.79 | 794.041 ± 0.79 | 790.078 ± 0.8 | 1236.2 ± 1.2 | 1219.9 ± 1.2 | 1203.1 ± 1.2 | 2.277 ± 0.028

CCCCCC [hexane] + CCCCO
Conditions | mass density, 298.15 K [kg/m3] | mass density, 303.15 K [kg/m3] | mass density, 308.15 K [kg/m3] | speed of sound, 298.15 K [m/s] | speed of sound, 303.15 K [m/s] | speed of sound, 308.15 K [m/s] | viscosity, 298.15 K [mPa·s]
x2 = 0 | 655.072 ± 1.1 | 650.369 ± 1.1 | 645.767 ± 1.1 | 1077.8 ± 1.2 | 1055.2 ± 1.1 | 1032.9 ± 1.1 | 0.313 ± 0.008
x2 = 0.0507 | 660.196 ± 1.1 | 655.432 ± 1.1 | 650.791 ± 1.1 | 1077.6 ± 1.2 | 1054.9 ± 1.1 | 1032.7 ± 1.1 | 0.323 ± 0.008
x2 = 0.101 | 665.602 ± 1.1 | 660.733 ± 1.1 | 656.143 ± 1.1 | 1079.4 ± 1.2 | 1056.8 ± 1.1 | 1034.5 ± 1.1 | 0.338 ± 0.008
x2 = 0.1524 | 671.434 ± 1 | 666.54 ± 1.1 | 661.908 ± 1.1 | 1082.5 ± 1.2 | 1059.9 ± 1.2 | 1037.6 ± 1.1 | 0.356 ± 0.008
x2 = 0.2574 | 684.29 ± 1 | 679.54 ± 1 | 674.857 ± 1 | 1091.7 ± 1.2 | 1069.1 ± 1.2 | 1046.8 ± 1.1 | 0.409 ± 0.008
x2 = 0.379 | 700.46 ± 0.99 | 696.019 ± 1 | 691.525 ± 1 | 1106.3 ± 1.2 | 1083.7 ± 1.2 | 1062 ± 1.2 | 0.505 ± 0.009
x2 = 0.4125 | 705.163 ± 0.98 | 700.869 ± 0.99 | 696.345 ± 1 | 1111.1 ± 1.2 | 1088.5 ± 1.2 | 1066.7 ± 1.2 | 0.547 ± 0.01
x2 = 0.4502 | 710.564 ± 0.97 | 706.47 ± 0.98 | 701.99 ± 0.98 | 1116.7 ± 1.2 | 1094.1 ± 1.2 | 1072.3 ± 1.2 | 0.587 ± 0.01
x2 = 0.5121 | 719.663 ± 0.95 | 715.869 ± 0.96 | 711.606 ± 0.97 | 1126.5 ± 1.2 | 1103.9 ± 1.2 | 1082.5 ± 1.2 | 0.679 ± 0.011
x2 = 0.6005 | 733.301 ± 0.92 | 730.025 ± 0.93 | 725.938 ± 0.94 | 1141.9 ± 1.2 | 1120.8 ± 1.2 | 1099.2 ± 1.2 | 0.854 ± 0.012
x2 = 0.7004 | 749.66 ± 0.89 | 746.763 ± 0.89 | 742.943 ± 0.9 | 1162.2 ± 1.2 | 1141.1 ± 1.2 | 1120.6 ± 1.2 | 1.11 ± 0.015
x2 = 0.8202 | 770.812 ± 0.84 | 767.985 ± 0.85 | 764.319 ± 0.85 | 1190.9 ± 1.2 | 1171.5 ± 1.2 | 1151.5 ± 1.2 | 1.541 ± 0.02
x2 = 0.8523 | 776.78 ± 0.83 | 773.953 ± 0.83 | 770.292 ± 0.84 | 1199 ± 1.2 | 1179.9 ± 1.2 | 1160.3 ± 1.2 | 1.685 ± 0.021
x2 = 0.8957 | 785.079 ± 0.81 | 782.252 ± 0.82 | 778.547 ± 0.83 | 1210.5 ± 1.2 | 1192.1 ± 1.2 | 1172.9 ± 1.2 | 1.901 ± 0.024
x2 = 0.9476 | 795.298 ± 0.79 | 792.462 ± 0.8 | 788.743 ± 0.81 | 1225.1 ± 1.2 | 1207.9 ± 1.2 | 1189.6 ± 1.2 | 2.209 ± 0.028

Reference: the NIST ThermoML archive (doi:10.1016/j.jct.2007.05.016)
